Reference: patent US20060088556A1 (priority 2003, published 2006)
Structures can show the parent of a compound that is named as a salt.

Experiments:
[1] = Solubility in phosphate buffered saline (receiver fluid); assay type: physicochemical; conditions: aqueous buffer
Text: (§1) Accurate determination of the rate of transport of buspirone through the skin relies upon the maintenance of sink conditions in the receiver fluid. […] Such high solubility was sufficient to ensure sink conditions for the study.

[2] = test system: oxazolone hypersensitivity reaction; conditions: mice, cited from earlier work
[3] = Stability in the receiver fluid; assay type: physicochemical; conditions: PBS receiver fluid, length of the study (48 hours)
Text: as §1

| solubility [1] | stability in the receiver fluid [3] | SMILES | oxazolone ear swelling ([2]; applied topically in an undefined solution, over the range 100 mg/ml to 0.25 mg/ml, McAloon et al. 1995) | inhibition of oxazolone hypersensitivity reactions ([2]; from U.S. Pat. No. 5,484,788, 5,631,017, WO 94/22448) |
| --- | --- | --- | --- | --- |
| > 3000 µg/mL | – | O=C1CC2(CCCC2)CC(=O)N1CCCCN1CCN(c2ncccn2)CC1 [buspirone hydrochloride] | – | – |
| – | stable | O=C1CC2(CCCC2)CC(=O)N1CCCCN1CCN(c2ncccn2)CC1 [buspirone, 8-[4-[4-(2-pyrimidyl)-1-piperazinyl]butyl]-8-azaspiro[4.5]decane-7,9-dione] | inhibits oxazolone ear swelling | inhibit oxazolone hypersensitivity reactions |
